What was measured:
[1] = log P by HPLC on reversed-phase column (C18), neutral range; type: physicochemical; conditions: ammonium carbonate in water / acetonitrile
Method: The log P values were determined according to EEC Directive 79/831 Annex V.A8 by HPLC (high-performance liquid chromatography) on a reversed-phase column (C18) using the following methods: ^[b] The log P value is determined by LC-UV measurement in the neutral range using 79 mg/l ammonium carbonate in water and acetonitrile as mobile phases (linear gradient from 10% acetonitrile to 95% acetonitrile). Calibration was carried out using a homologous series of straight-chain alkan-2-ones (having 3 to 16 carbon atoms) with known log P values. The values between successive alkanones are determined by linear regression.

[2] = test system: mustard beetle (Phaedon cochleariae); assay: Comparative experiment: Phaedon cochleariae spray test (PHAECO); type: in vivo; conditions: 168 h, 7 dat, read-out: % efficacy; for Emax at 4 g/ha: 4 g of ai/ha; for Emax at 20 g/ha: 20 g of ai/ha
Method: Phaedon Cochleariae—Spray Test (PHAECO)
(§1) • Solvent: 78.0 parts by weight of acetone • 1.5 parts by weight of dimethylformamide • Emulsifier: alkylaryl polyglycol ether
(§2) To produce a suitable active compound formulation, 1 part by weight of active compound is dissolved using the stated parts by weight of solvent and made up with water containing an emulsifier concentration of 1000 ppm until the desired concentration is attained. To produce further test concentrations, the formulation is diluted with emulsifier-containing water.
Disks of Chinese cabbage leaves (Brassica pekinensis) are sprayed with an active compound formulation of the desired concentration and, after drying, populated with larvae of the mustard beetle (Phaedon cochleariae).
After the desired period of time, the efficacy in % is determined. 100% means that all the beetle larvae have been killed; 0% means that no beetle larvae have been killed.

[3] = test system: armyworm (Spodoptera frugiperda); assay: Comparative experiment: Spodoptera frugiperda spray test (SPODFR); type: in vivo; conditions: 168 h, 7 dat, read-out: % efficacy; for Emax at 0.8 g/ha: 0.8 g of ai/ha; for Emax at 4 g/ha: 4 g of ai/ha; for Emax at 20 g/ha: 20 g of ai/ha
Method: Spodoptera Fruaiperda—Spray Test (SPODFR)
as §1, §2
Leaf disks of corn (Zea mays) are sprayed with an active compound formulation of the desired concentration and, after drying, populated with caterpillars of the armyworm (Spodoptera frugiperda).
After the desired period of time, the efficacy in % is determined. 100% means that all the caterpillars have been killed; 0% means that no caterpillar has been killed.

[4] = test system: green peach aphid (Myzus persicae); assay: Comparative experiment: Myzus persicae spray test (MYZUPE); type: in vivo; conditions: 120 h, 5 dat, read-out: % efficacy; for Emax at 4 g/ha: 4 g of ai/ha; for Emax at 20 g/ha: 20 g of ai/ha; for Emax at 100 g/ha: 100 g of ai/ha
Method: Myzus Persicae—Spray Test (MYZUPE)
as §1, §2
Disks of Chinese cabbage leaves (Brassica pekinensis) infested by all stages of the green peach aphid (Myzus persicae) are sprayed with an active compound preparation of the desired concentration.
After the desired period of time, the efficacy in % is determined. 100% means that all the aphids have been killed; 0% means that no aphids have been killed.

[5] = test system: mustard beetle Phaedon cochleariae; assay: Phaedon cochleariae spray test; type: in vivo; conditions: 100 g/ha; after 7 days; Chinese cabbage leaf disks, larvae
Method: Phaedon Cochleariae—Spray Test
as §1, §2
Disks of Chinese cabbage leaves (Brassica pekinensis) are sprayed with an active compound formulation of the desired concentration and, after drying, populated with larvae of the mustard beetle Phaedon cochleariae).
After 7 days, the efficacy in % is determined. 100% means that all the beetle larvae have been killed; 0% means that no beetle larvae have been killed.

[6] = test system: green peach aphid (Myzus persicae); assay: Myzus persicae spray test; type: in vivo; conditions: foliar, 120 h, after 5 days, Chinese cabbage leaf disks, read-out: efficacy in %
Method: Myzus Persicae—Spray Test
(§3) • Solvent: 78 parts by weight of acetone • 1.5 parts by weight of dimethylformamide • Emulsifier: alkylaryl polyglycol ether
as §2
Disks of Chinese cabbage leaves (Brassica pekinensis) infested by all stages of the green peach aphid (Myzus persicae) are sprayed with an active compound formulation of the desired concentration.
After 5 days, the efficacy in % is determined. 100% means that all the aphids have been killed; 0% means that no aphids have been killed.

[7] = test system: green peach aphids (Myzus persicae); assay: Myzus persicae oral test; type: in vivo; conditions: 120 h, after 5 days, read-out: efficacy in %
Method: Myzus Persicae—Oral Test • Solvent: 100 parts by weight of acetone To produce a suitable active compound formulation, 1 part by weight of active compound is dissolved using the specified parts by weight of solvent and made up with water until the desired concentration is attained. 50 μl of the active compound preparation are transferred into microtitre plates and made up to a final volume of 200 μl with 150 μl of IPL41 insect medium (33%+15% sugar). Subsequently, the plates are sealed with parafilm, which a mixed population of green peach aphids (Myzus persicae) within a second microtitre plate is able to puncture and imbibe the solution through. After 5 days, the efficacy in % is determined. 100% means that all the aphids have been killed; 0% means that no aphids have been killed.

[8] = test system: fall armyworm (Spodoptera frugiperda); assay: Spodoptera frugiperda spray test; type: in vivo; conditions: foliar, 168 h, after 7 days, corn leaf disks, caterpillars, read-out: efficacy in %
Method: Spodoptera Fruaiperda—Spray Test
as §1, §2
Leaf disks of corn (Zea mays) are sprayed with an active compound formulation of the desired concentration and, after drying, populated with caterpillars of the fall armyworm (Spodoptera frugiperda).
After 7 days, the efficacy in % is determined. 100% means that all the caterpillars have been killed; 0% means that no caterpillar has been killed.

Diabrotica balteata = Diabrotica balteata spray test; type: in vivo; conditions: topical, 168 h, 100 g/ha (=32 μg/cavity), after 7 days, sprayed germinated wheat grains, beetle larvae, read-out: efficacy in %
Method: Diabrotica balteata—Spray Test
as §3, §2
Pre-swollen wheat grains (Triticum aestivum) are incubated in a multiwell plate filled with agar and a little water for one day (5 seed grains per cavity). The germinated wheat grains are sprayed with an active compound formulation of the desired concentration. Subsequently, each cavity is infected with 10−20 beetle larvae of Diabrotica balteata.
After 7 days, the efficacy in % is determined. 100% means that all wheat plants have grown as in the untreated, uninfected control; 0% means that no wheat plant has grown.

[9] = test system: greenhouse red spider mite (Tetranychus urticae); assay: Tetranychus urticae spray test, OP-resistant; type: in vivo; conditions: 100 g/ha, after 6 days, bean leaf disks
Method: Tetranychus Urticae—Spray Test, OP-Resistant
as §1, §2
Disks of bean leaves (Phaseolus vulgaris) infested with all stages of the greenhouse red spider mite (Tetranychus urticae) are sprayed with an active compound formulation of the desired concentration.
After 6 days, the efficacy in % is determined. 100% means that all the spider mites have been killed; 0% means that no spider mites have been killed.

Structure (SMILES)	pest or weed control at 100 g/ha [6]	pest or weed control at 0.8 ppm [7]	pest or weed control at 4 ppm [7]	pest or weed control at 100 g/ha [8]	pest or weed control at 100 g/ha (Diabrotica balteata)	further results
CCSc1c(-c2nc3cc(C(F)(F)F)cnc3n2C)ncc2cc(C3(C#N)CC3)ccc12 [1-[4-Ethylsulfanyl-3-[3-methyl-6-(trifluoromethyl)imidazo[4,5-b]pyridin-2-yl]-7-isoquinolyl]cyclopropanecarbonitrile]						chromatographic logP [1]: 3.67
CCSc1c(-c2nc3cc(C(F)(F)F)cnc3n2C)ncc2cc(CC#N)ccc12 [2-[4-Ethylsulfanyl-3-[3-methyl-6-(trifluoromethyl)imidazo[4,5-b]pyridin-2-yl]-7-isoquinolyl]acetonitrile]						chromatographic logP [1]: 3.22
CCSc1c(-c2nc3cc(C(F)(F)F)cnc3n2C)ncc2cc(Br)ccc12 [7-Bromo-4-ethylsulfanyl-3-[3-methyl-6-(trifluoromethyl)imidazo[4,5-b]pyridin-2-yl]isoquinoline]						chromatographic logP [1]: 4.36
CCS(=O)(=O)c1c(-c2nc3cc(C(F)(F)F)cnc3n2C)ncc2cc(C3(C#N)CC3)ccc12 [Example I-1, 1-[4-Ethylsulfonyl-3-[3-methyl-6-(trifluoromethy)imidazo[4,5-b]pyridin-2-yl]-7-isoquinolyl]cyclopropanecarbonitrile]	90%	90%	100%	100%		Emax at 4 g/ha [2]: 100%; Emax at 20 g/ha [2]: 100%; Emax at 0.8 g/ha [3]: 83%; Emax at 4 g/ha [3]: 100%; Emax at 20 g/ha [3]: 100%; chromatographic logP [1]: 3.02; Emax at 4 g/ha [4]: 70%; Emax at 20 g/ha [4]: 90%; Emax at 100 g/ha [4]: 90%; efficacy in % [5]: 100%
CCS(=O)(=O)c1c(-c2nc3cc(C(F)(F)F)ncc3n2C)ncc2cc(C3(C#N)CC3)ccc12 [Example I-2]	90%	90%	100%	100%	100%	
CCS(=O)(=O)c1c(-c2nc3cc(C(F)(F)C(F)(F)F)ccc3o2)ncc2cc(C3(C#N)CC3)ccc12 [Example I-3]				100%	100%	
CCS(=O)(=O)c1c(-c2nc3cc(C(F)(F)C(F)(F)F)cnc3n2C)ncc2cc(C3(C#N)CC3)ccc12 [Example I-4]	100%	100%	100%	100%	100%	
CCS(=O)(=O)c1c(-c2nc3cc(OC(F)(F)C(F)(F)F)cnc3n2C)ncc2cc(C3(C#N)CC3)ccc12 [Example I-5]	90%		100%	100%		
CCS(=O)(=O)c1c(-c2nc3cc(C(F)(F)F)ccc3n2C)ncc2cc(C3(C#N)CC3)ccc12 [Example I-6]	90%		100%	100%	100%	
CCS(=O)(=O)c1c(-c2nc3cc(S(=O)(=O)C(F)(F)F)ccc3o2)ncc2cc(C3(C#N)CC3)ccc12 [Example I-7]				100%	100%	
CCS(=O)(=O)c1c(-c2nc3cc(OC(F)(F)F)ccc3o2)ncc2cc(C3(C#N)CC3)ccc12 [Example I-8]				100%	100%	
CCS(=O)(=O)c1c(-c2nc3cc(C(F)(F)F)nnc3n2C)ncc2cc(C3(C#N)CC3)ccc12 [Example I-9]	90%	90%		100%	100%	efficacy in % [9]: 90%
CCS(=O)(=O)c1c(-c2nc3cc(C(F)(F)C(F)(F)F)nnc3n2C)ncc2cc(C3(C#N)CC3)ccc12 [Example I-10]	100%	90%		100%	100%	
CCS(=O)(=O)c1c(-c2nc3cc(OC(F)(F)F)cnc3n2C)ncc2cc(C3(C#N)CC3)ccc12 [Example I-11]	100%	100%	100%	100%	100%	
CCS(=O)(=O)c1c(-c2nc3cc(OC(F)(F)F)ccc3n2C)ncc2cc(C3(C#N)CC3)ccc12 [Example I-12]	100%	90%	100%	100%	100%	
CCS(=O)(=O)c1c(-c2nc3cc(C(F)(F)C(F)(F)F)ncc3n2C)ncc2cc(C3(C#N)CC3)ccc12 [Example I-13]	100%	100%	100%	100%	100%	
CCS(=O)(=O)c1c(-c2nc3cc(C(F)(F)C(F)F)cnc3n2C)ncc2cc(C3(C#N)CC3)ccc12 [Example I-14]	100%	100%	100%	100%	100%	
CCS(=O)(=O)c1c(-c2nc3cc(C(F)(F)F)cnc3n2C)ncc2ccccc12 [I′-47, reference compound]						Emax at 4 g/ha [2]: 0%; Emax at 20 g/ha [2]: 67%; Emax at 0.8 g/ha [3]: 0%; Emax at 4 g/ha [3]: 33%; Emax at 20 g/ha [3]: 67%
CCS(=O)(=O)c1c(-c2nc3cc(C(F)(F)F)cnc3n2C)ncc2cc(C(F)(F)F)ccc12 [I′-51, reference compound]						Emax at 4 g/ha [4]: 0%; Emax at 20 g/ha [4]: 0%; Emax at 100 g/ha [4]: 90%
